Results as given in PubChem BioAssay (NCI).
Where “and” joins values, the source holds several entries; their conditions need not be identical. Identical values can stand only once.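 Step 1: Grow cells in 96-well plates. Step 2: Expose to compound for 48 hours at 5 concentrations. Step 3: Interpolate endpoints linearly; if unreached, use highest concentration. GI50: concentration for 50% inhibition of growth. TGI: concentration producing complete growth inhibition.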

Legend:
Experiment in all cases: NCI tumour cell line growth inhibition, 48 h
CCRF-CEM leukemia = tested on: CCRF-CEM leukemia
EKVX NSCLC = tested on: EKVX NSCLC
MALME-3M melanoma = tested on: MALME-3M melanoma
NCI-H460 lung = tested on: NCI-H460 lung
NCI/ADR-RES ovarian = tested on: NCI/ADR-RES ovarian
RXF 393 renal = tested on: RXF 393 renal
SK-MEL-28 melanoma = tested on: SK-MEL-28 melanoma
SK-OV-3 ovarian = tested on: SK-OV-3 ovarian
T-47D breast = tested on: T-47D breast
UACC-257 melanoma = tested on: UACC-257 melanoma

SMILES	GI50 (CCRF-CEM leukemia) [µM]	TGI (CCRF-CEM leukemia)	GI50 (EKVX NSCLC) [µM]	TGI (EKVX NSCLC) [µM]	GI50 (MALME-3M melanoma) [µM]	TGI (MALME-3M melanoma) [µM]	GI50 (NCI-H460 lung) [µM]	TGI (NCI-H460 lung)	GI50 (NCI/ADR-RES ovarian)	TGI (NCI/ADR-RES ovarian)	GI50 (RXF 393 renal)	TGI (RXF 393 renal)	GI50 (SK-MEL-28 melanoma) [µM]	TGI (SK-MEL-28 melanoma) [µM]	GI50 (SK-OV-3 ovarian) [µM]	TGI (SK-OV-3 ovarian)	TGI (T-47D breast) [µM]	GI50 (UACC-257 melanoma) [µM]	TGI (UACC-257 melanoma) [µM]	GI50 (T-47D breast) [µM]
O=C1NC2(CCCCC2)C(=O)N1CCN(CCCl)CCCl	12.2	25 µM and 212 µM	> 25	> 250	> 25	> 194	15.7	25 µM and 249 µM	> 25 µM	> 25 µM and 184 µM	> 25 µM and 99.2 µM	> 25 µM and 202 µM	> 25	> 114	> 25	> 25 µM and 250 µM	25	> 25	> 250	
Cc1ccc(Cl)c(NS(=O)(=O)c2ccc(-c3cnc(C4CC4)o3)cc2)c1	0.0777	> 100 µM	0.314	> 100	11	49.7	0.102	20.4 µM	0.0618 µM	6.04 µM	0.199 µM	> 100 µM	2.77	> 58.5	3.31	68.8 µM	67.9	8.16	50.7	0.0481
Nc1ncc(-c2ccc3ncnc(N4CCc5ccc(Cl)cc54)c3c2)cc1C(F)(F)F	3.87	> 100 µM	0.507	18.7	0.919	6.22	1.02	13.7 µM	2.26 µM	91.1 µM	0.181 µM	0.864 µM	2.01	13.9	1.3	7.04 µM	10.9	2.86	20.9	0.557
COc1ccccc1/C=C\C(=O)C1COCN1 (stereo not drawn)		> 100 µM		42.6		45.7		> 100 µM		52.3 µM		81.8 µM		36.6		30.1 µM	20.7		34	
COc1cc2c(c(OC)c1OC)-c1ccc(SC)c(=O)cc1[C@@H](NC(=O)C(F)(F)F)CC2		> 100 µM		> 100		> 88.1				79.9 µM		1.28 µM		17.8			> 100		> 4.64	
CCN(CC)CCN1c2nc3ccccc3cc2Sc2cc3ccccc3nc21	1.84	4.73 µM	4.49	17.9	1.57	3.12	1.52	2.95 µM	2.5 µM	7.83 µM	3.78 µM	18 µM	1.8	3.49	3.5	12.9 µM	12.5	2.04	4.06	3.09
CCOc1ccc(C(C[N+](=O)[O-])Sc2ccccc2N)cc1 (stereo not drawn)	3.67	18.9 µM	14.8	30	12.3	24.7	10.2	27 µM	14.3 µM	28.1 µM	2.1 µM	4.6 µM	4.03	14.8	14.2	27.2 µM	25.3	4.6	16.7	6.77
CCN(CC)c1ccc(-c2cc(-c3cc(OC)c(OC)c(OC)c3)nc(N3CCC(O)CC3)c2C#N)cc1	0.6	> 100 µM	0.613	> 100	0.303	1.18	0.245	1.62 µM	0.272 µM	5.95 µM	0.193 µM	2.93 µM	0.879	3.76	1.8	> 31.6 µM	3.8			0.495
COc1ccccc1[As]=[As]c1ccccc1OC (stereo not drawn)	0.026	0.113 µM	0.12	0.271	0.0443	0.145	0.096	0.334 µM	0.0763 µM	0.306 µM	0.0257 µM	0.0644 µM	0.0437	0.153	0.158	0.293 µM	0.199	0.0775	0.218	0.0366
N#Cc1nc(C#N)c(Sc2ccccc2)c(Sc2ccccc2)c1Sc1ccccc1	0.417	> 100 µM	1.25	> 100	1.48	5.04	2.35	> 27.6 µM	0.504 µM	> 100 µM	0.98 µM	3.22 µM	1.48	2.89	3.27	9.01 µM	2.48	1.37	2.94	0.584
CCCCCCCCCCCCN=C(N)c1ccc(N2CCN(c3ccc(C(N)=NCCCCCCCCCCCC)cc3)CC2)cc1	1.56	10.9 µM	9.76	20.5			13.8	> 50 µM	33.3 µM	> 50 µM	9.54 µM	37.6 µM	13.3	26.9	19.5	34.1 µM	21.3	26.1	> 50	10.6
O=C1Nc2ccccc2/C1=C\c1nc(-c2ccccc2F)n2ccccc12	91.1	> 100 µM	10.6	28.3	3.07	7.22	2.17	5.14 µM	3.36 µM	13.3 µM	3.14 µM	10.7 µM	3.71	14.6	3.46	12.4 µM	8.11	5.2	18.1	2.36
COS(C)(=O)=O		> 2 µM		> 2		> 2		> 2 µM		> 2 µM		> 2 µM		> 2		> 2 µM	> 2		> 2	
COc1ccc(C2C(C#N)=C(N)Oc3c2sc2c(Br)cccc32)cc1 (stereo not drawn)	1.63	7.02 µM	4.38	21	4.75	25.3	2.08	21.9 µM	0.767 µM	4.26 µM	1.94 µM	5.96 µM	8.15	24.1	4.68	19.9 µM	15	13.6	32.7	3.13
Fc1ccc(-c2nn3ccccc3c2-c2ccncc2)cc1	> 25	> 25 µM	> 20.2	> 25	> 25	> 25	> 25	> 25 µM	> 25 µM	> 25 µM	> 25 µM	> 25 µM	> 25	> 25	> 25	> 25 µM	> 25	> 25	> 25	> 21
O=C1Cc2cc(CCn3cncn3)c(Cl)cc2N1	3.5	> 100 µM	0.825	> 100	> 100	> 100	68.6	> 100 µM	5.85 µM	> 100 µM	7.48 µM	> 100 µM	21	> 100	36.5	> 100 µM	> 100	7.14	> 100	> 100
COc1ccc2c(c1)CCc1cc(OC)ccc1/[N+]([O-])=[N+]\2[O-]		5.74 µM		42.5		38.5		39.9 µM		> 62 µM		12.2 µM		34.1		35.6 µM	49.1		35	
Oc1ccc(C(O)(c2ccccc2)c2ccccc2)c2ccccc12		1.8 µM		26.4		23.2		> 100 µM		6.58 µM		> 100 µM		29.9		14.1 µM	24		23.7	
OC1CCCC2CCC[N-]C12.OC1CCCC2CCC[N-]C12.[O]=[V][OH] (stereo not drawn)	0.493	12.2 µM	3.62	22.8	5.03	> 100	5.49	> 100 µM	2.82 µM	15.1 µM	15.6 µM	35.4 µM	21.2	> 100	6.25	55.9 µM	26.6	4.05	> 100	0.825
O=C(Nc1ccccc1)OC1OC(COC(=O)c2ccccc2)C(OC(=O)c2ccccc2)C1OS(=O)(=O)c1ccc([N+](=O)[O-])cc1 (stereo not drawn)		> 100 µM		> 100		> 100		> 100 µM		> 100 µM		> 100 µM		> 100		> 100 µM	> 100		> 100	
O=C(Nc1cc(Cl)ccc1O)c1cccc(Nc2ccnc(C(F)(F)F)c2)c1	1.93	6.8 µM	2.43	10.7	2.22	11.2	1.95	13.2 µM	2.67 µM	14.1 µM	11 µM	29.1 µM	6.15	19.1	3.3	25.3 µM	7.51	4.63	16.7	1.02
O=C(Nc1cc(F)c(F)cc1C(=O)O)c1ccc(-n2ccnc2)nn1	98.2	> 100 µM	> 100	> 100	> 100	> 100	> 100	> 100 µM	> 100 µM	> 100 µM	19.6 µM	> 100 µM	> 100	> 100	> 100	> 100 µM	> 100	> 100	> 100	> 100
Clc1cccc(CNc2c3ccccc3nc3ccccc23)c1	2.31	8.77 µM	2.76	11.2	1.61	3.02	1.95	4.2 µM	1.8 µM	4.97 µM	1.35 µM	2.85 µM	1.7	3.25	3.12	13.2 µM	5.06	1.92	4.25	2
COc1ccc(-c2cc(-c3ccc(Cl)cc3)nc(NCCCCNc3ccnc4cc(Cl)ccc34)n2)cc1	2.6	> 100 µM	13.2	35.1	1.75	3.36	2.04	4.35 µM	1.6 µM	3.37 µM	1.65 µM	5.2 µM	1.76	3.32	13	27.3 µM	31.4	1.96	4.22	12.3
COc1ccc(C(=O)c2cc3c(N)c(C(=O)Nc4cccc(Br)c4C)sc3nc2C)cc1	0.0409	> 100 µM	0.0954	> 100	0.0542	> 100	0.0962		0.0402 µM	> 100 µM	0.0214 µM		> 100	> 100	0.102	> 100 µM	> 100	> 100	> 100	50.4
CCCc1nc(Cl)c(Cl)c(Cl)n1		> 44.2 µM		43.7		> 51.4		> 100 µM		> 100 µM		56.4 µM		> 100		> 100 µM	> 100		> 100	
Clc1ccc2c(c1)N(C1CCCN(Cc3ccccc3)C1)c1ccccc1S2 (stereo not drawn)	4.89	> 100 µM	4.22	79.9	3.88	39.9	3.17	10.4 µM	3.24 µM	13.7 µM	3.69 µM	25.3 µM	7.69	> 100	3.36	> 100 µM	> 100	18.3	> 100	7.4
COc1ccc2c(c1)/C(=C\c1c(-c3cc(OC)ccc3OC)nc3sccn13)C(=O)N2	6.91				1.38	2.97	4.39	> 100 µM	4.83 µM and 1.7 µM	3.39 µM	1.77 µM	3.93 µM	1.49	2.81	9.29	24.6 µM	2.74	2.17	4.43	1.32
